Laboratory results published in patent publication US20160045505A1, “COMPOUNDS AND COMPOSITIONS FOR THE TREATMENT OF PARASITIC DISEASES” (NOVARTIS AG, priority 2013, published 2016).
Where two headings read alike, the source gives them in different places.

Assays:
[1] = tested on: Leishmania donovani axenic amastigote parasites; test: Leishmania donovani axenic amastigote proliferation assay (Cell TiterGlo luminescence, 2 day incubation); format: cell-based; conditions: Leishmania donovani, read-out: L. donovani amastigotes EC50
[2] = tested on: L. donovani HU3 strain in mouse peritoneal macrophages; test: Assay for proliferation of Leishmania parasites in infected mouse peritoneal macrophages (SybrGreen staining, high-content imaging, 5 days); format: cell-based, Leishmania donovani; conditions: L. donovani in mouse peritoneal macrophages, read-out: L. donovani Macrophage EC50
[3] = tested on: Trypanosoma cruzi amastigotes (Tulahuen strain expressing Lac-Z) cultured in 3T3 fibroblast cells; test: microbe, parasite or virus in culture; format: cell-based; conditions: Trypanosoma cruzi, TULAHUEN, Fibroblast, T. cruzi amastigotes in 3T3 fibroblast cells, read-out: T cruzi EC50
[4] = axenic amastigotes, inhibition of proliferation
[5] = Leishmania donovani, Peritoneal macrophage, inhibition of proliferation
[6] = Leishmania donovani, Peritoneal macrophage

EC50 [1, 4] | EC50 [2, 5] | Compound | also measured
862 nM | 1900 nM | CCN(CC)C(=O)Nc1ccc(Cl)c(-c2cn3cc(NC(=O)OC(C)C)cnc3n2)c1 [Compound 274] | 
> 25000 nM | > 50000 nM | Cc1nc(C)c(C(=O)Nc2ccc(F)c(-c3cn4cc(-c5cnoc5)cnc4n3)c2)o1 [Compound 367] | 
2040 nM | 9130 nM | CC(C)OC(=O)Nc1cnc2nc(-c3cc(NC(=O)c4cocn4)ccc3F)cn2c1 [Compound 65] | 
764 nM | 8390 nM | CC(C)OC(=O)Nc1cnc2nc(-c3cc(NC(=O)c4ccno4)ccc3F)cn2c1 [Compound 72] | 
> 25000 nM | > 50000 nM | CC(C)OC(=O)Nc1cnc2nc(-c3cc(NC(=O)c4cc5cc(Cl)ccc5[nH]4)ccc3F)cn2c1 [Compound 89] | 
6900 nM | > 18300 nM | CCNC(=O)Nc1ccc(Cl)c(-c2cn3cc(NC(=O)OC(C)C)cnc3n2)c1 [Compound 254] | 
80 nM |  | CC1=C(C(=O)Nc2cnc3nc(-c4cc(NC(=O)N5CCCC5)ccc4F)cn3c2)OCCO1 [Compound 122] | 
2600 nM | 9430 nM | O=C(Nc1ccc(F)c(-c2cn3cc(-c4ccnc(C(F)(F)F)c4)cnc3n2)c1)N1CCCC1 [Compound 341] | 
752 nM | 2150 nM | CC(C)OC(=O)Nc1cnc2nc(-c3cc(NC(=O)N(C)C)ccc3F)cn2c1 [Compound 219] | 
> 25000 nM | > 43500 nM | CC(C)OC(=O)Nc1cnc2nc(-c3cc(NC(=O)N4CC(S(C)(=O)=O)C4)ccc3F)cn2c1 [Compound 292] | 
4610 nM | 24100 nM | CC(C)OC(=O)Nc1cnc2nc(-c3cc(NC(=O)c4cnc(Br)s4)ccc3F)cn2c1 [Compound 91] | 
1290 nM | 15200 nM | CC(C)OC(=O)Nc1cnc2nc(-c3cc(NC(=O)c4cccn4C)ccc3F)cn2c1 [Compound 73] | 
161 nM | 469 nM | CC(C)OC(=O)Nc1cnc2nc(-c3cc(NC(=O)c4ccc(Cl)o4)ccc3F)cn2c1 [Compound 64, isopropyl (2-(5-(5-chlorofuran-2-carboxamido)-2-fluorophenyl)imidazo[1,2-a]pyrimidin-6-yl)carbamate] | 
> 25000 nM | > 50000 nM | CC(C)OC(=O)Nc1cnc2nc(-c3cc(NC(=O)N4CCC4C(=O)O)ccc3F)cn2c1 (centres unmarked) [Compound 295] | 
141 nM | 321 nM | CC(C)OC(=O)Nc1cnc2nc(-c3cc(NC(=O)N4CC(F)(F)C4)ccc3F)cn2c1 [Compound 289] | 
1890 nM | 3230 nM | CC(C)OC(=O)Nc1cnc2nc(-c3cc(NC(=O)c4ccc[nH]4)ccc3F)cn2c1 [Compound 71] | 
69 nM | 188 nM | Cc1ncc(C(=O)Nc2ccc(F)c(-c3cn4cc(NC(=O)OC(C)C)cnc4n3)c2)o1 [Compound 95] | 
707 nM | 2120 nM | CC(C)OC(=O)Nc1ccc(-c2cnc3nc(-c4cc(NC(=O)N5CCCC5)ccc4F)cn3c2)cc1 [Compound 340] | 
154 nM | 722 nM | CN(CC(F)(F)F)C(=O)Nc1ccc(F)c(-c2cn3cc(-c4ccccc4)cnc3n2)c1 [Compound 325] | 

Second part, the compound before the results:

Compound | EC50 [1, 4] | EC50 [2, 5] | also measured
COCCOC(=O)Nc1cccc(-c2cn3cc(NC(=O)OC(C)C)cnc3n2)c1 [Compound 23] | 7300 nM | 24700 nM | 
Cc1nc(C)c(C(=O)Nc2ccc(F)c(-c3cn4cc(NC(=O)OC(C)C)cnc4n3)c2)o1 [Compound 61] | 245 nM | 715 nM | 
Cc1cnoc1C(=O)Nc1ccc(F)c(-c2cn3cc(NC(=O)OC(C)C)cnc3n2)c1 [Compound 111] | > 25000 nM | > 50000 nM | EC50 ([3]; inhibition of proliferation): > 20000 nM
CC(C)OC(=O)Nc1cnc2nc(-c3cc(NC(=O)N4CCCC4)ccc3F)cn2c1 [Compound 17] | 410 nM | 350 nM | 
Cc1nc(C)c(C(=O)Nc2ccc(F)c(-c3cn4cc(C(C)N5CCOCC5)cnc4n3)c2)o1 (centres unmarked) [Compound 618, N-(4-fluoro-3-(6-(1-morpholinoethyl)imidazo[1,2-a]pyrimidin-2-yl)phenyl)-2,4-dimethyloxazole-5-carboxamide] |  |  | EC50 ([1]; L. donovani axenic amastigotes): 903 nM; EC50 [2, 6]: 691 nM
CON(C)C(=O)Nc1cccc(-c2cn3cc(NC(=O)OC(C)C)cnc3n2)c1 [Compound 14] |  |  | EC50 ([2]; inhibition of proliferation): 3200 nM
CC(C)OC(=O)Nc1cnc2nc(-c3cc(NC(=O)N4CCCC4)ccc3Cl)c(F)n2c1 [Compound 15, isopropyl (2-(2-chloro-5-(pyrrolidine-1-carboxamido)phenyl)-3-fluoroimidazo[1,2-a]pyrimidin-6-yl)carbamate] | 1500 nM | 2950 nM | 
CC(=O)N[C@@H]1CCN(C(=O)Nc2ccc(Cl)c(-c3cn4cc(NC(=O)OC(C)C)cnc4n3)c2)C1 [Compound 271] | > 25000 nM | > 50000 nM | 
O=C(Nc1ccc(Cl)c(-c2cn3cc(-c4ccccc4)cnc3n2)c1)N1CCCC1 [Compound 29] | 36 nM | 152 nM | 
Cc1nc(C)c(C(=O)Nc2ccc(F)c(-c3cn4cc(-c5ncccc5C(F)F)cnc4n3)c2)o1 [Compound 588] |  |  | EC50 ([1]; L. donovani axenic amastigotes): 19 nM; EC50 [2, 6]: 459 nM
CC(C)OC(=O)Nc1cnc2nc(-c3cc(NC(=O)c4cc5cccc(F)c5[nH]4)ccc3F)cn2c1 [Compound 93] | > 25000 nM | > 50000 nM | 
COC(=O)CN1CCC(c2cnc3nc(-c4cc(NC(=O)c5oc(C)nc5C)ccc4F)cn3c2)CC1 [Compound 539, methyl 2-(4-(2-(5-(2,4-dimethyloxazole-5-carboxamido)-2-fluorophenyl)imidazo[1,2-a]pyrimidin-6-yl)piperidin-1-yl)acetate] |  |  | EC50 ([1]; L. donovani axenic amastigotes): 975 nM; EC50 [3]: 381 nM
Cc1nc(C)c(C(=O)Nc2ccc(F)c(-c3cn4cc(CC5CCC5)cnc4n3)c2)o1 [Compound 613, N-(3-(6-(cyclobutylmethyl)imidazo[1,2-a]pyrimidin-2-yl)-4-fluorophenyl)-2,4-dimethyloxazole-5-carboxamide] |  |  | EC50 ([1]; L. donovani axenic amastigotes): 30 nM; EC50 [2, 6]: > 50000 nM
Cc1nc(C)c(C(=O)Nc2ccc(F)c(-c3cn4cc(CC(C)C)cnc4n3)c2)o1 [Compound 590, N-(4-fluoro-3-(6-isobutylimidazo[1,2-a]pyrimidin-2-yl)phenyl)-2,4-dimethyloxazole-5-carboxamide] |  |  | EC50 ([1]; L. donovani axenic amastigotes): 24 nM; EC50 [2, 6]: 45 nM
CC(C)OC(=O)Nc1cnc2nc(-c3cccc(NC(=O)c4cnccn4)c3)cn2c1 [Compound 7] | 2530 nM | 1860 nM | 
Cc1nc(C)c(C(=O)Nc2ccc(F)c(-c3cn4cc(C(C)N(C)C)cnc4n3)c2)o1 (centres unmarked) [Compound 619] |  |  | EC50 ([1]; L. donovani axenic amastigotes): 6350 nM; EC50 [2, 6]: 929 nM
CC(C)OC(=O)Nc1cnc2nc(-c3cccc(NC(=O)N4CCCC4)c3)cn2c1 [Compound 5] | 1080 nM | 4000 nM | 

Compound | EC50 [1, 4] | EC50 [2, 5] | also measured
CC(C)OC(=O)Nc1cnc2nc(-c3cccc(NC(=O)c4ccco4)c3)cn2c1 [Compound 8] | 1590 nM | 4700 nM | 
CC(C)OC(=O)Nc1cnc2nc(-c3cc([N+](=O)[O-])ccc3F)cn2c1 [Compound 19, isopropyl (2-(2-fluoro-5-nitrophenyl)imidazo[1,2-a]pyrimidin-6-yl)carbamate] | 19100 nM | 46900 nM | 
Cc1nc(C)c(C(=O)Nc2ccc(F)c(-c3cn4cc(CN5CCOCC5)cnc4n3)c2)o1 [Compound 616, N-(4-fluoro-3-(6-(morpholinomethyl)imidazo[1,2-a]pyrimidin-2-yl)phenyl)-2,4-dimethyloxazole-5-carboxamide] |  |  | EC50 ([1]; L. donovani axenic amastigotes): 602 nM; EC50 [2, 6]: > 50000 nM
Cc1nc(C)c(C(=O)Nc2ccc(F)c(-c3cn4cc(CC(C)(C)C)cnc4n3)c2)o1 [Compound 591] |  |  | EC50 ([1]; L. donovani axenic amastigotes): 28 nM; EC50 [2, 6]: > 50000 nM
Cc1nc(C)c(C(=O)Nc2ccc(F)c(-c3cn4cc(-c5ncccc5C(F)(F)F)cnc4n3)c2)o1 [Compound 589] |  |  | EC50 ([1]; L. donovani axenic amastigotes): 22 nM; EC50 [2, 6]: 375 nM
Cc1nc(C(=O)Nc2ccc(F)c(-c3cn4cc(NC(=O)OC(C)C)cnc4n3)c2)c(C)o1 [Compound 62] | 2000 nM | 11600 nM | 
Cc1nc(C)c(C(=O)Nc2ccc(F)c(-c3cn4cc(C5C6CCCC5C6)cnc4n3)c2)o1 (centres unmarked) [Compound 615] |  |  | EC50 ([1]; L. donovani axenic amastigotes): 82 nM
CC(C)OC(=O)Nc1cnc2nc(-c3cc(NC(=O)c4cnc(Cl)[nH]4)ccc3F)cn2c1 [Compound 100] | > 25000 nM | > 50000 nM | 
Cc1nc(C)c(C(=O)Nc2ccc(F)c(-c3cn4cc(CN(C)C)cnc4n3)c2)o1 [Compound 617] |  |  | EC50 ([1]; L. donovani axenic amastigotes): 3440 nM
Cc1nc(C)c(C(=O)Nc2ccc(F)c(-c3cn4cc(CC5OCCO5)cnc4n3)c2)o1 [Compound 614] |  |  | EC50 ([1]; L. donovani axenic amastigotes): 389 nM; EC50 [2, 6]: > 50000 nM
CC(C)OC(=O)NCc1cnc2nc(-c3cc(NC(=O)c4ccc(F)o4)ccc3F)cn2c1 [Compound 207] | 7140 nM | > 40300 nM | 
CC(C)OC(=O)Nc1cnc2nc(-c3cc(NC(=O)c4ccc(C#N)o4)ccc3F)cn2c1 [Compound 107] | 84 nM | 298 nM | 
O=C(Nc1ccc(F)c(-c2cn3cc(C(F)(F)F)cnc3n2)c1)N1CC(F)C1 [Compound 587, 3-fluoro-N-(4-fluoro-3-(6-(trifluoromethyl)imidazo[1,2-a]pyrimidin-2-yl)phenyl)azetidine-1-carboxamide] |  |  | EC50 ([1]; L. donovani axenic amastigotes): 73 nM; EC50 [2, 6]: 647 nM
CC(C)OC(=O)Nc1cnc2nc(-c3cc(NC(=O)c4cnc(N)o4)ccc3F)cn2c1 [Compound 94] | > 25000 nM | > 50000 nM | 
CC(C)OC(=O)Nc1cnc2nc(-c3cc(NC(=O)c4ncco4)ccc3F)cn2c1 [Compound 99] | 2980 nM | 9920 nM | 
CNc1ccc(-c2cnc3nc(-c4cc(NC(=O)OCCOC)ccc4Cl)cn3c2)cc1 [Compound 36] | 560 nM | 1280 nM | 
